Results from PubChem BioAssay AID330 (DTP/NCI, 2004).
“And” between values parts separate entries of the source, which are not always exact repeats. Identical values can stand only once. Inconclusive results and toxic doses are left out. Rule for the calls: active = survival T/C of 150% or more; inactive = T/C below 125% in these data.

Tested on: P388 leukemia ip, CD2F1 mice, survival T/C
Test: NCI In Vivo Anticancer Drug Screen. Data for tumor model P388 Leukemia (intraperitoneal) in CD2F1 (CDF1) mice
Conditions: endpoint: median survival time, higher = longer survival
In short: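 Mice carrying the transplanted tumor received test compound or vehicle. Survival was recorded in each group, and the value is the treated-group measurement divided by that of the vehicle-treated control group.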

[1] = dose: 50.0 mg/kg/injection, schedule: Q01DX009 (ip), vehicle: Klucel (hydroxypropylcellulose) (HPC)
[2] = dose: 100.0 mg/kg/injection, schedule: Q01DX009 (ip), vehicle: Klucel (hydroxypropylcellulose) (HPC)
[3] = dose: 200.0 mg/kg/injection, schedule: Q01DX009 (ip), vehicle: Klucel (hydroxypropylcellulose) (HPC)
[4] = dose: 100.0 mg/kg/injection, schedule: Q04DX002 (ip), vehicle: saline with Tween-80
[5] = dose: 200.0 mg/kg/injection, schedule: Q04DX002 (ip), vehicle: saline with Tween-80
[6] = dose: 400.0 mg/kg/injection, schedule: Q04DX002 (ip), vehicle: saline with Tween-80
[7] = dose: 60.0 mg/kg/injection, schedule: Q01DX005 (ip), vehicle: saline with Tween-80
[8] = dose: 120.0 mg/kg/injection, schedule: Q01DX005 (ip), vehicle: saline with Tween-80
[9] = dose: 240.0 mg/kg/injection, schedule: Q01DX005 (ip), vehicle: saline with Tween-80
[10] = dose: 50.0 mg/kg/injection, schedule: Q01DX005 (ip), vehicle: saline
[11] = dose: 100.0 mg/kg/injection, schedule: Q01DX005 (ip), vehicle: saline
[12] = dose: 12.5 mg/kg/injection, schedule: Q01DX009 (ip), vehicle: saline with Tween-80
[13] = dose: 25.0 mg/kg/injection, schedule: Q01DX009 (ip), vehicle: saline with Tween-80
[14] = dose: 50.0 mg/kg/injection, schedule: Q01DX009 (ip), vehicle: saline with Tween-80

Measured: T/C

CNC(=O)c1cccc2c(Nc3ccc(NS(C)(=O)=O)cc3OC)c3cccc(C)c3nc12
active: dose: 1.56 mg/kg/injection, schedule: Q01DX005 (ip), vehicle: water 163 % of control | dose: 3.0 mg/kg/injection, schedule: Q01DX005 (ip), vehicle: water 175 % of control | dose: 3.12 mg/kg/injection, schedule: Q01DX005 (ip), vehicle: water 169 % of control | dose: 6.25 mg/kg/injection, schedule: Q01DX005 (ip), vehicle: water 218 % of control | dose: 12.5 mg/kg/injection, schedule: Q01DX005 (oral), vehicle: water 151 % of control

CN(C)CCn1c2ccccc2c2cc([N+](=O)[O-])ccc21
inactive: [1] 102 % of control | [2] 105 % of control | [3] 108 % of control

CN1CCCC2c3ccccc3CCC21 (stereo not given)
inactive: dose: 12.5 mg/kg/injection, schedule: Q04DX003 (ip), vehicle: Klucel (hydroxypropylcellulose) (HPC) 104 % of control | dose: 25.0 mg/kg/injection, schedule: Q04DX003 (ip), vehicle: Klucel (hydroxypropylcellulose) (HPC) 101 % of control

COc1ccc(C2ON=C(c3cc(C)cc(Br)c3O)C2[N+](=O)[O-])cc1 (stereo not given)
inactive: [4] 90 % of control | [5] 94 % of control | [6] 94 % of control

COc1cc2c(c3c1C(=O)c1c(cc4c(c1O)C(OC1OC(C)C(OC)C(C)(OC)C1OC)CC(C)(O)C4)C3=O)OC1OC2(C)C(O)C(N(C)C)C1O (stereo not given)
active: dose: 5.0 mg/kg/injection, schedule: Q01DX009 (ip), vehicle: other 153 % of control | dose: 10.0 mg/kg/injection, schedule: Q01DX009 (ip), vehicle: other 159 % of control | dose: 20.0 mg/kg/injection, schedule: Q01DX009 (ip), vehicle: other 168 % of control

COc1ccc(-c2ccc(Cc3ccc(-c4ccc(OC)cc4)o3)o2)cc1
inactive: dose: 50.0 mg/kg/injection, schedule: Q01DX005 (ip), vehicle: saline with Tween-80 94 % of control | dose: 100.0 mg/kg/injection, schedule: Q01DX005 (ip), vehicle: saline with Tween-80 91 % of control | dose: 200.0 mg/kg/injection, schedule: Q01DX005 (ip), vehicle: saline with Tween-80 91 % of control

C=CB(OCCC)OCCC
inactive: dose: 50.0 mg/kg/injection, schedule: Q01DX009 (ip), vehicle: saline 92 % of control | dose: 100.0 mg/kg/injection, schedule: Q01DX009 (ip), vehicle: saline 92 % of control | dose: 200.0 mg/kg/injection, schedule: Q01DX009 (ip), vehicle: saline 88 % of control

Cc1ccc2c(C(=O)O)cccc2n1
inactive: [4] 97 % of control | [5] 98 % of control | [6] 95 % of control

COc1cccc2c1C(=O)c1c(O)c3c(c(O)c1C2=O)C[C@@](O)(C(C)=O)CC3OC1CC(NC2CC(=O)N(c3ccccc3)C2=O)C(O)C(C)O1 (stereo not given in full)
inactive: dose: 6.25 mg/kg/injection, schedule: Q04DX003 (ip), vehicle: water 108 % of control | dose: 12.5 mg/kg/injection, schedule: Q04DX003 (ip), vehicle: water 103 % of control | dose: 25.0 mg/kg/injection, schedule: Q04DX003 (ip), vehicle: water 103 % of control | dose: 50.0 mg/kg/injection, schedule: Q04DX003 (ip), vehicle: water 108 % of control

Cc1cc(=O)oc2c1ccc1occc(=O)c12
inactive: [7] 96 % of control | [8] 102 % of control | [9] 100 % of control

CCC1OC(OC)C=CC1=O (stereo not given)
inactive: dose: 12.5 mg/kg/injection, schedule: Q01DX005 (ip), vehicle: Klucel (hydroxypropylcellulose) (HPC) 113 % of control | dose: 12.5 mg/kg/injection, schedule: Q01DX005 (ip), vehicle: saline 101 % of control | dose: 25.0 mg/kg/injection, schedule: Q01DX005 (ip), vehicle: Klucel (hydroxypropylcellulose) (HPC) 114 % of control | dose: 25.0 mg/kg/injection, schedule: Q01DX005 (ip), vehicle: saline 108 % of control | dose: 50.0 mg/kg/injection, schedule: Q01DX005 (ip), vehicle: Klucel (hydroxypropylcellulose) (HPC) 124 % of control | [10] 98 % of control | [11] 104 % of control

Cc1cc(-c2ccc(N=Nc3c(C)nn(-c4ccc(S(=O)(=O)O)cc4)c3O)c(C)c2)ccc1N=Nc1ccc(O)c(C(=O)O)c1
inactive: dose: 6.25 mg/kg/injection, schedule: Q01DX009 (ip), vehicle: saline with Tween-80 100 % of control | [12] 101 % of control | [13] 93 % of control

ClCCCCN(CCN(CCCCCl)c1ccccc1)c1ccccc1
inactive: dose: 12.5 mg/kg/injection, schedule: Q04DX002 (ip), vehicle: saline 100 % of control | dose: 25.0 mg/kg/injection, schedule: Q04DX002 (ip), vehicle: saline 101 % of control

CCOC(=O)/C(=C(\C)N)n1[nH]c(=O)ccc1=O
inactive: dose: 100.0 mg/kg/injection, schedule: Q04DX002 (ip), vehicle: saline 98 % of control | dose: 200.0 mg/kg/injection, schedule: Q04DX002 (ip), vehicle: saline 100 % of control | dose: 400.0 mg/kg/injection, schedule: Q04DX002 (ip), vehicle: saline 100 % of control

CCN(CC)C(=O)OC1c2ccccc2C2CC1c1ccccc1C2O (stereo not given)
inactive: dose: 100.0 mg/kg/injection, schedule: Q04DX003 (ip), vehicle: Klucel (hydroxypropylcellulose) (HPC) 97 % of control | dose: 200.0 mg/kg/injection, schedule: Q04DX003 (ip), vehicle: Klucel (hydroxypropylcellulose) (HPC) 102 % of control | dose: 400.0 mg/kg/injection, schedule: Q04DX003 (ip), vehicle: Klucel (hydroxypropylcellulose) (HPC) 89 % of control

[Fe]=[Se]
inactive: [7] 96 % of control | [8] 86 % of control | [9] 107 % of control

CSCc1cc(CO)no1
inactive: [7] 100 % of control | [8] 99 % of control | [9] 106 % of control

Cc1ccc(S(=O)(=O)N(C)C=O)cc1
inactive: [14] 100 % of control | dose: 100.0 mg/kg/injection, schedule: Q01DX009 (ip), vehicle: saline with Tween-80 103 % of control | dose: 200.0 mg/kg/injection, schedule: Q01DX009 (ip), vehicle: saline with Tween-80 101 % of control

O=C([S-])N1CCCCC1.O=C([S-])N1CCCCC1.[Ni+2]
inactive: [12] 90 % of control | [13] 100 % of control | [14] 90 % of control

CCOC(=O)c1ccc(N(CCC2CO2)S(=O)(=O)c2ccc(C)cc2)cc1 (stereo not given)
inactive: dose: 25.0 mg/kg/injection, schedule: Q01DX009 (ip), vehicle: Klucel (hydroxypropylcellulose) (HPC) 94 % of control | [1] 93 % of control | [2] 98 % of control | [3] 94 % of control

N#Cc1ccccc1NC(=O)Nc1ccc(Cl)cc1Cl
inactive: dose: 0.46 mg/kg/injection, schedule: Q01DX005 (ip), vehicle: saline with Tween-80 94 % of control | dose: 0.93 mg/kg/injection, schedule: Q01DX005 (ip), vehicle: saline with Tween-80 97 % of control | dose: 1.87 mg/kg/injection, schedule: Q01DX005 (ip), vehicle: saline with Tween-80 99 % of control | [7] 91 % of control and 92 % of control | [8] 88 % of control | [9] 98 % of control

COc1ccc(C(=O)CCN(C)C)c(OC)c1
inactive: dose: 15.0 mg/kg/injection, schedule: Q01DX005 (ip), vehicle: saline 102 % of control | dose: 30.0 mg/kg/injection, schedule: Q01DX005 (ip), vehicle: saline 94 % of control | dose: 60.0 mg/kg/injection, schedule: Q01DX005 (ip), vehicle: saline 106 % of control and 109 % of control

COc1ccc(/C=N/Nc2nnc3c4ccccc4n(C)c3n2)cc1
inactive: dose: 100.0 mg/kg/injection, schedule: Q01DX001 (ip), vehicle: saline with Tween-80 89 % of control | dose: 200.0 mg/kg/injection, schedule: Q01DX001 (ip), vehicle: saline with Tween-80 91 % of control | dose: 400.0 mg/kg/injection, schedule: Q01DX001 (ip), vehicle: saline with Tween-80 107 % of control

CN1CCCC1=NCCN=C1CCCN1C
inactive: [10] 117 % of control | [11] 99 % of control | dose: 200.0 mg/kg/injection, schedule: Q01DX005 (ip), vehicle: saline 98 % of control

COc1cc(OC)c(-c2oc3c(OC)c(OC)c(OC)c(OC)c3c(=O)c2OC)cc1OC
inactive: dose: 15.0 mg/kg/injection, schedule: Q01DX005 (ip), vehicle: Klucel (hydroxypropylcellulose) (HPC) 94 % of control | dose: 30.0 mg/kg/injection, schedule: Q01DX005 (ip), vehicle: Klucel (hydroxypropylcellulose) (HPC) 102 % of control | dose: 60.0 mg/kg/injection, schedule: Q01DX005 (ip), vehicle: Klucel (hydroxypropylcellulose) (HPC) 92 % of control | dose: 120.0 mg/kg/injection, schedule: Q01DX005 (ip), vehicle: Klucel (hydroxypropylcellulose) (HPC) 90 % of control
